27 molecules from patent US7259271B2, “Peripherally-selective inhibitors of dopamine-β-hydroxylase and method of their preparation” (Portela & C.A., S.A., priority 2002, dated 2007) can be followed below.

The experiment concerns the target T1, human DβH (Homo sapiens, UniProt P09172).
T1 construct: SK-N-SH cells (ATCC HTB-11), a human neuroblastoma derived cell line, were used as a source of human DβH; host or cells: SK-N-SH cells
T1 sequence (P09172 1-617): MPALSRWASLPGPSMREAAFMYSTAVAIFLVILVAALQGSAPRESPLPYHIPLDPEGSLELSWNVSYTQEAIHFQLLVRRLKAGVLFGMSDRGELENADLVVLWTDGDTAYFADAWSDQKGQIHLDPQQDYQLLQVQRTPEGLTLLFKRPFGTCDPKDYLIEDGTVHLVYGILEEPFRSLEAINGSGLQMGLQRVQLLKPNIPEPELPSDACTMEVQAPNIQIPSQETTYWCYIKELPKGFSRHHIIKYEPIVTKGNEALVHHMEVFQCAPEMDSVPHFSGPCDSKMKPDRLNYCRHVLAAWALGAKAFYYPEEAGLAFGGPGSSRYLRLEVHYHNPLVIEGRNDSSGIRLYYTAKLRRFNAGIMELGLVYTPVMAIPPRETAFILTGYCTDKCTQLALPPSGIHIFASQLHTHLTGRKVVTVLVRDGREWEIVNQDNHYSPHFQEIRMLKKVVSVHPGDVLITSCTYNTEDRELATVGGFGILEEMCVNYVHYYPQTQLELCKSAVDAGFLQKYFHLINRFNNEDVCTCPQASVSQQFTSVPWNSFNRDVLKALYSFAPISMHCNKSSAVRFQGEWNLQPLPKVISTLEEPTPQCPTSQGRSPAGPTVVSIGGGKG
Put plainly: DβH activity (β-hydroxylation of dopamine to noradrenaline) in SK-N-SH cells. Conditions: for inhibition of DβH activity (in words): 5 μM, as listed in Table 1; for remaining activity at 5 µM: SK-N-SH, 0.75 h, read-out: DβH activity in SK-N-SH cells, Mean ± SEM; for IC50 values against human DβH activity (in words): concentration-dependent decrease in β-hydroxylation of dopamine; for IC50: read-out: IC50 for inhibition of DβH in SK-N-SH cells; for DβH activity in SK-N-SH cells, Mean ± SEM: compound 5 μM, 50 mM dopamine. Format: cell-based. As to the method:
SK-N-SH cells (ATCC HTB-11), a human neuroblastoma derived cell line, were used as a source of human DβH. SK-N-SH cells cultured in 24 well plates were preincubated for 20 min in a reaction medium containing 200 mM sodium acetate, 30 mM N-ethylmaleimide, 5 μM copper sulphate, 0.5 mg/ml catalase aqueous solution, 1 mM pargyline, 10 mM sodium fumarate and 20 mM ascorbic acid. […] During preincubation and incubation, the cells were continuously shaken and maintained at 37° C. The reaction was terminated by the addition of 0.2 M perchloric acid. The acidified samples were stored at 4° C. before injection into the high pressure liquid chromatograph for the assay of noradrenaline.

Where a name gives a salt, the structure may show the parent alone.

In the case of `Cl.NCCc1c[nH]c(=S)n1[C@H]1CCc2c(F)cc(F)cc2C1` [Compound 2, (S)-5-(2-aminoethyl)-1-(5,7-difluoro-1,2,3,4-tetrahydronaphthalen-2-yl)-1,3-dihydroimidazole-2-thione hydrochloride], the “inhibition of DβH activity (in words)” value was “markedly inhibit”; the remaining activity at 5 µM was 1.6 ± 0.3%; the “IC50 values against human DβH activity (in words)” value was “low nM range”; the IC50 (in general, the concentration at which inhibition is half-maximal) is 60 nM.
For `COc1ccc2c(c1)C[C@@H](n1c(CCN)c[nH]c1=S)CO2` [Compound 23, (R)-5-(2-aminoethyl)-1-(6-methoxychroman-3-yl)-1,3-dihydroimidazole-2-thione hydrochloride], the remaining activity at 5 µM is 54.5 ± 9.9%.
Take `Cl.NCc1c[nH]c(=S)n1[C@H]1COc2c(F)cc(F)cc2C1` [Compound 3, (R)-5-aminomethyl-1-(6,8-difluorochroman-3-yl)-1,3-dihydroimidazole-2-thione hydrochloride]: the “inhibition of DβH activity (in words)” value is reported as “markedly inhibit”, the remaining activity at 5 µM worked out at 4.1 ± 0.6%, the “IC50 values against human DβH activity (in words)” value is “low nM range” and the IC50 came out at 91 nM.
Consider `Cl.NCCc1c[nH]c(=S)n1[C@H]1CSc2ccc(O)cc2C1` (racemic) [Compound 31, (R,S)-5-(2-aminoethyl)-1-(6-hydroxythiochroman-3-yl)-1,3-dihydroimidazole-2-thione hydrochloride], for which the “DβH activity in SK-N-SH cells, Mean ± SEM” value was 27.3 ± 0.4 % of control.
As to `NCCc1c[nH]c(=S)n1[C@@H]1COc2c(F)cc(F)cc2C1` [Compound 9, (S)-5-(2-aminoethyl)-1-(6,8-difluorochroman-3-yl)-1,3-dihydroimidazole-2-thione hydrochloride], the remaining activity at 5 µM turned out to be 50.2 ± 1.9%.
Take `COc1ccc2c(c1)C[C@@H](n1c(CCN)c[nH]c1=S)CS2.Cl` (racemic) [Compound 30, (R,S)-5-(2-aminoethyl)-1-(6-methoxythiochroman-3-yl)-1,3-droimidazole-2-thione hydrochloride]: the “DβH activity in SK-N-SH cells, Mean ± SEM” value was 99.4 ± 2.8 % of control.
With `Cl.NCCc1c[nH]c(=S)n1[C@H]1COc2cc(F)c(F)cc2C1` [Compound 8, (R)-5-(2-aminoethyl)-1-(6,7-difluorochroman-3-yl)-1,3-dihydroimidazole-2-thione hydrochloride], the “inhibition of DβH activity (in words)” value is recorded as “markedly inhibit” and the remaining activity at 5 µM stood at 9.4 ± 0.7%.
In the case of `COc1cc(Cl)cc2c1OC[C@H](n1c(CCN)c[nH]c1=S)C2` [Compound 11, (R)-5-(2-aminoethyl)-1-(6-chloro-8-methoxychroman-3-yl)-1,3-dihydroimidazole-2-thione hydrochloride], the remaining activity at 5 µM came out at 36.7 ± 4.4%.
Consider `Cl.NCCc1c[nH]c(=S)n1[C@H]1COc2ccccc2C1` [Compound 12, (R)-5-(2-aminoethyl)-1-chroman-3-yl-1,3-dihydroimidazole-2-thione hydrochloride], for which the “inhibition of DβH activity (in words)” value is reported as “markedly inhibit” and the remaining activity at 5 µM stood at 3 ± 0.5%.
For `Cl.NCCc1c[nH]c(=S)n1[C@H]1COc2ccc(O)cc2C1` [Compound 16, (R)-5-(2-aminoethyl)-1-(6-hydroxychroman-3-yl)-1,3-dihydroimidazole-2-thione hydrochloride] the same measures were “markedly inhibit” and 0%.
Regarding `Cl.Oc1ccc2c(c1)C[C@@H](n1c(CCNCc3ccccc3)c[nH]c1=S)CO2` [Compound 26, (R)-5-(2-Benzylaminoethyl)-1-(6-hydroxychroman-3-yl)-1,3-dihydroimidazole-2-thione hydrochloride], the “inhibition of DβH activity (in words)” value is recorded as “markedly inhibit” and the remaining activity at 5 µM is 4.5 ± 1.9%.
In the case of `CNCCc1c[nH]c(=S)n1[C@H]1COc2c(F)cc(F)cc2C1.Cl` [Compound 28, (R)-1-(6,8-Difluorochroman-3-yl)-5-(2-methylaminoethyl)-1,3-dihydroimidazole-2-thione hydrochloride], the “inhibition of DβH activity (in words)” value is given as “markedly inhibit” and the remaining activity at 5 µM turned out to be 2.6 ± 1.6%.
For `Cl.NCc1c[nH]c(=S)n1[C@H]1COc2ccccc2C1` [Compound 24, (R)-5-aminomethyl-1-chroman-3-yl-1,3-dihydroimidazole-2-thione hydrochloride] the same measures were “markedly inhibit” and 0%.
In the case of `CNCCc1c[nH]c(=S)n1[C@H]1COc2ccccc2C1.Cl` [Compound 29, (R)-1-Chroman-3-yl-5-(2-methylaminoethyl)-1,3-dihydroimidazole-2-thione hydrochloride], the “inhibition of DβH activity (in words)” value is given as “markedly inhibit” and the remaining activity at 5 µM came to 2.2 ± 2.5%.
Regarding `NCCc1c[nH]c(=S)n1[C@H]1COc2c(O)cccc2C1` [Compound 21, (R)-5-(2-aminoethyl)-1-(8-hydroxychroman-3-yl)-1,3-dihydroimidazole-2-thione hydrochloride], the remaining activity at 5 µM was 125 ± 6.5%.
Consider `COc1cccc2c1OC[C@H](n1c(CCN)c[nH]c1=S)C2.Cl` [Compound 19, (R)-5-(2-aminoethyl)-1-(8-methoxychroman-3-yl)-1,3-dihydroimidazole-2-thione hydrochloride], for which the “inhibition of DβH activity (in words)” value is recorded as “markedly inhibit” and the remaining activity at 5 µM is 6.9 ± 0.5%.
As to `NCCc1c[nH]c(=S)n1[C@H]1COc2ccc([N+](=O)[O-])cc2C1` [Compound 18, (R)-5-(2-aminoethyl)-1-(6-nitrochroman-3-yl)-1,3-dihydroimidazole-2-thione hydrochloride], the remaining activity at 5 µM was determined as 94.8 ± 1.2%.
With `Cl.NCCCc1c[nH]c(=S)n1[C@H]1CCc2c(F)cc(F)cc2C1` [Compound 5, (S)-5-(3-aminopropyl)-1-(5,7-difluoro-1,2,3,4-tetrahydronaphthalen-2-yl)-1,3-dihydroimidazole-2-thione hydrochloride], the “inhibition of DβH activity (in words)” value is listed as “markedly inhibit” and the remaining activity at 5 µM was found to be 8.1 ± 0.3%.
For the molecule `CC(=O)Nc1ccc2c(c1)C[C@@H](n1c(CCN)c[nH]c1=S)CO2` [Compound 14, (R)-5-(2-aminoethyl)-1-[6-(acetylamino)chroman-3-yl]-1,3-dihydroimidazole-2-thione hydrochloride], the remaining activity at 5 µM turned out to be 77.9 ± 2.2%.
In the case of `NCCc1c[nH]c(=S)n1[C@H]1COc2cc(Cc3ccccc3)c(O)cc2C1` [Compound 15, (R)-5-(2-aminoethyl)-1-(6-hydroxy-7-benzylchroman-3-yl)-1,3-dihydroimidazole-2-thione hydrochloride], the remaining activity at 5 µM turned out to be 86.1 ± 2.7%.
Same read-out and setting: the figure for `CNCCc1c[nH]c(=S)n1[C@H]1COc2ccc(O)cc2C1` [Compound 27, (R)-1-(6-Hydroxychroman-3-yl)-5-(2-methylaminoethyl)-1,3-dihydroimidazole-2-thione hydrochloride] is 15.5 ± 5.8%; for `COc1cc(Cl)c2c(c1)C[C@@H](n1c(CCN)c[nH]c1=S)CO2` [Compound 13, (R)-5-(2-aminoethyl)-1-(6-methoxy-8-chlorochroman-3-yl)-1,3-dihydroimidazole-2-thione hydrochloride] it is 94 ± 3.1%; for `NCc1c[nH]c(=S)n1[C@H]1COc2ccc(O)cc2C1` [Compound 22, (R)-5-aminomethyl-1-(6-hydroxychroman-3-yl)-1,3-dihydroimidazole-2-thione hydrochloride] it is 17.8 ± 2.1%.
Regarding `NCCc1c[nH]c(=S)n1[C@H]1COc2c(cccc2[N+](=O)[O-])C1` [Compound 17, (R)-5-(2-aminoethyl)-1-(8-nitrochroman-3-yl)-1,3-dihydroimidazole-2-thione hydrochloride], the remaining activity at 5 µM stood at 53.2 ± 3.9%.
On the same count and under the same terms, the figure for `COc1ccc2c(c1)C[C@@H](n1c(CCNCc3ccccc3)c[nH]c1=S)CO2` [Compound 25, (R)-5-(2-Benzylaminoethyl)-1-(6-methoxychroman-3-yl)-1,3-dihydroimidazole-2-thione hydrochloride] is 66 ± 4.5%.
With `Cl.NCCc1c[nH]c(=S)n1[C@H]1COc2ccc(F)cc2C1` [Compound 7, (R)-5-(2-aminoethyl)-1-(6-fluorochroman-3-yl)-1,3-dihydroimidazole-2-thione hydrochloride], the “inhibition of DβH activity (in words)” value is “markedly inhibit” and the remaining activity at 5 µM came to 8 ± 0.1%.
For `Cl.NCCc1c[nH]c(=S)n1[C@H]1COc2c(F)cccc2C1` [Compound 6, (R)-5-(2-aminoethyl)-1-(8-fluorochroman-3-yl)-1,3-dihydroimidazole-2-thione hydrochloride] the same measures were “markedly inhibit” and 6.9 ± 0.6%.
